Reference: the supplement of paper PMC10307832

Key:
Assay in all cases: relative viability (nuclei count vs DMSO), 5 days (fraction); higher = more cells survive
[1] = compound: CC1=C(C(=NN1)C)CC2=C(C3=C(S2)N(C(=O)N(C3=O)C)CC(C)C)C(=O)N4C[C@@H](CO4)O + CC(C)C[C@H](NC(=O)[C@H](Cc1ccccc1)NC(=O)c1cnccn1)B(O)O [Bortezomib] (partner 0.002 µM)
How it was run: (§1)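 Medians of duplicate plates are given as relative viability. That measure is the nuclei count in treated wells divided by the count in vehicle wells. Counts were taken on 4× images of lung cancer cell lines in 1536-well plates, 5 days after pin-tool dosing the day after seeding with one drug alone or a fixed anchor-drug dose plus five library-drug doses (not always all listed) in √10 steps.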

IDH-C35 + Bortezomib = compound: Cc1ccccc1C(C(=O)NC1CCCCC1)N(C(=O)Cn1ccnc1C)c1cccc(F)c1 [IDH-C35] + CC(C)C[C@H](NC(=O)[C@H](Cc1ccccc1)NC(=O)c1cnccn1)B(O)O [Bortezomib] (partner 0.002 µM)
How it was run: as §1

[2] = compound: CC1=C(C(=NN1)C)CC2=C(C3=C(S2)N(C(=O)N(C3=O)C)CC(C)C)C(=O)N4C[C@@H](CO4)O + C[C@@H](Oc1cc(-c2cnn(C3CCNCC3)c2)cnc1N)c1c(Cl)ccc(F)c1Cl [Crizotinib] (partner 1 µM)
How it was run: as §1

IDH-C35 + AZD7762 = compound: Cc1ccccc1C(C(=O)NC1CCCCC1)N(C(=O)Cn1ccnc1C)c1cccc(F)c1 [IDH-C35] + NC(=O)Nc1cc(-c2cccc(F)c2)sc1C(=O)N[C@H]1CCCNC1 [AZD7762] (partner 0.2 µM)
How it was run: as §1

| Cell Line | relative viability ([1]; first compound 0.0025 µM) | relative viability ([1]; first compound 0.007906 µM) | relative viability ([1]; first compound 0.025 µM) | relative viability ([1]; first compound 0.07906 µM) | relative viability ([1]; first compound 0.25 µM) | relative viability (IDH-C35 + Bortezomib; first compound 0.08 µM) | relative viability (IDH-C35 + Bortezomib; first compound 0.253 µM) | relative viability (IDH-C35 + Bortezomib; first compound 0.8 µM) | relative viability (IDH-C35 + Bortezomib; first compound 2.53 µM) | relative viability (IDH-C35 + Bortezomib; first compound 8 µM) | relative viability ([2]; first compound 0.0025 µM) | relative viability ([2]; first compound 0.007906 µM) | relative viability ([2]; first compound 0.025 µM) | relative viability ([2]; first compound 0.07906 µM) | relative viability ([2]; first compound 0.25 µM) | relative viability (IDH-C35 + AZD7762; first compound 0.08 µM) | relative viability (IDH-C35 + AZD7762; first compound 0.253 µM) | relative viability (IDH-C35 + AZD7762; first compound 0.8 µM) | relative viability (IDH-C35 + AZD7762; first compound 2.53 µM) | relative viability (IDH-C35 + AZD7762; first compound 8 µM) |
| --- | --- | --- | --- | --- | --- | --- | --- | --- | --- | --- | --- | --- | --- | --- | --- | --- | --- | --- | --- | --- |
| NCI-H2126 | 1.11 | 1.15 | 1.07 | 1.07 | 1.15 | 1.14 | 1.12 | 1.15 | 1.09 | 1.07 | 1.05 | 1.02 | 1.01 | 1 | 1.02 | 0.983 | 0.96 | 0.983 | 0.927 | 0.946 |
| NCI-H3122 | 0.963 | 0.978 | 1 | 0.99 | 1.02 | 1.1 | 1.01 | 0.985 | 1.02 | 1.02 | 0.281 | 0.26 | 0.276 | 0.259 | 0.299 | 1.02 | 0.996 | 1.02 | 0.987 | 1.03 |
| NCI-H1975 | 0.423 | 0.338 | 0.42 | 0.409 | 0.342 | 0.383 | 0.376 | 0.421 | 0.354 | 0.315 | 0.942 | 1 | 1 | 0.869 | 1.08 | 0.755 | 0.75 | 0.766 | 0.818 | 0.793 |
| LU99A | 1.37 | 1.21 | 1.07 | 1.14 | 1.2 | 1.14 | 1.1 | 1.1 | 1.05 | 1.16 | 0.542 | 0.592 | 0.533 | 0.566 | 0.648 | 0.326 | 0.398 | 0.396 | 0.335 | 0.36 |
| NCI-H2347 | 1.09 | 1.15 | 0.684 | 0.718 | 0.852 | 0.912 | 1.02 | 0.929 | 1.08 | 0.878 | 0.834 | 0.813 | 0.801 | 0.621 | 0.875 | 0.781 | 0.799 | 0.884 | 0.718 | 0.658 |
| HCC-15 | 1 | 0.945 | 0.979 | 1.02 | 1.2 | 1.03 | 0.958 | 1.01 | 0.936 | 0.982 | 0.826 | 0.71 | 0.781 | 0.757 | 0.947 | 1.33 | 1.1 | 1.08 |  | 1.35 |
| HCC-44 | 0.901 | 0.904 | 0.9 | 0.893 | 0.797 | 0.899 | 0.934 | 0.88 | 0.86 | 0.843 | 0.765 | 0.843 | 0.88 | 0.811 | 0.929 | 1 | 0.982 | 0.999 | 1.03 | 1.01 |
| HCC-78 | 0.526 | 0.614 | 0.535 | 0.543 | 0.413 | 0.581 | 0.521 | 0.587 | 0.563 | 0.446 | 0.444 | 0.316 | 0.342 | 0.371 | 0.322 | 0.584 | 0.66 | 0.615 | 0.738 | 0.732 |
| NCI-H727 | 0.919 | 0.583 | 0.694 | 0.716 | 0.873 | 0.891 | 0.896 | 0.801 | 0.782 | 0.94 | 0.697 | 0.65 | 0.882 | 0.838 | 0.754 | 0.633 | 0.655 | 0.539 | 0.469 | 0.597 |
| NCI-H2087 | 0.996 | 0.716 | 0.705 | 0.909 | 1.05 | 0.846 | 0.959 | 0.805 | 0.863 | 0.654 | 0.822 | 0.804 | 0.927 | 0.923 | 0.937 | 1.39 | 1.32 | 1.16 | 1.23 | 1.36 |
| BEN | 0.772 | 0.74 | 0.532 | 0.675 | 0.665 | 0.897 | 0.921 | 0.799 | 0.881 | 0.936 | 0.912 | 0.719 | 0.75 | 0.604 | 0.847 | 0.572 | 0.772 | 0.679 | 0.586 | 0.683 |
| LCLC-103H | 1.11 | 1.08 | 1.15 | 1.04 | 1.05 | 1.09 | 1.14 | 1.07 | 0.98 | 0.973 | 0.936 | 1.03 | 1.02 | 0.991 | 1.17 | 0.831 | 0.792 | 0.81 | 0.779 | 0.829 |
| EKVX | 1.02 | 1.33 | 1.07 | 0.992 | 1.03 | 1.18 | 0.995 | 0.995 | 1.04 | 0.993 | 1.09 | 1.11 | 0.988 | 0.962 | 0.992 | 0.75 | 0.819 | 0.725 | 0.803 | 0.756 |
| LXF-289 | 1 | 0.972 | 1 | 1.02 | 1.07 | 0.984 | 1 | 0.941 | 0.999 | 0.955 | 0.817 | 0.735 | 0.818 | 0.789 | 0.818 | 1.1 | 1.06 | 1.13 | 1.06 | 1.19 |
| ABC-1 | 0.342 | 0.304 | 0.304 | 0.394 | 0.335 | 0.391 | 0.306 | 0.299 | 0.339 | 0.362 | 1.24 | 0.905 | 1.01 | 0.956 | 0.992 | 0.779 | 0.874 | 0.739 | 0.744 | 1.01 |
| NCI-H650 | 1.02 | 0.714 | 0.671 | 0.757 | 0.825 | 0.774 | 0.93 | 0.755 |  | 0.861 | 0.949 | 0.75 | 0.631 | 0.77 | 0.773 | 1.04 | 1.26 | 1.13 |  | 0.97 |
| NCI-H2085 | 1.04 | 0.978 | 0.947 | 0.98 | 0.926 | 1.02 | 1.05 | 0.981 | 0.982 | 0.871 | 0.923 | 0.726 | 0.8 | 0.89 | 0.862 | 1.04 | 1.09 | 0.953 | 0.985 | 0.924 |
| LC-2-ad | 1.06 | 1.05 | 1.15 | 0.999 | 1.14 | 1.01 | 1.03 | 1.01 | 1.04 | 0.935 | 0.486 | 0.451 | 0.411 | 0.454 | 0.638 | 0.878 | 0.846 | 0.793 | 0.837 | 0.804 |
| NCI-H1355 | 1.2 | 1.28 | 1.24 | 1.15 | 1.23 | 1.21 | 1.15 | 1.16 | 1.17 | 1.05 | 1.07 | 1.09 | 1.09 | 1.05 | 1.14 | 0.805 | 0.889 | 0.715 | 0.72 | 0.657 |
| H3255 | 0.819 | 0.79 | 0.734 | 0.758 | 1.02 | 0.682 | 0.856 | 0.816 | 0.863 | 1.05 | 0.924 | 0.902 | 0.817 | 0.816 | 0.926 | 0.814 | 0.947 | 0.924 | 0.88 | 0.829 |
| NCI-H1993 | 1.19 | 1.12 | 1.09 | 1.01 | 1.15 | 1.07 | 1.03 | 1.16 | 1.19 | 1.24 | 1.07 | 0.901 | 0.965 | 0.853 | 0.932 | 0.755 | 0.749 | 0.755 | 0.784 | 0.713 |
| NCI-H1734 | 0.946 | 0.736 | 0.893 | 0.835 | 0.747 | 1.06 | 1.17 | 0.85 | 0.892 | 0.914 | 0.773 | 0.517 | 0.641 | 0.614 | 0.562 | 0.575 | 0.623 | 0.532 | 0.49 | 0.551 |
| HOP-62 | 0.535 | 1.03 | 0.753 | 0.557 | 1.07 | 0.725 | 0.77 | 0.73 |  | 0.798 | 0.807 | 1.11 | 1 | 0.819 | 1.12 | 0.624 | 0.553 | 0.739 | 0.519 | 0.532 |
| LOU-NH91 | 0.473 | 0.486 | 0.546 | 0.423 | 0.476 | 0.574 | 0.485 | 0.519 | 0.527 | 0.502 | 0.735 | 0.733 | 0.797 | 0.741 | 0.732 | 0.805 | 0.73 | 0.753 | 0.765 | 0.815 |
| ChaGo-K-1 | 0.906 | 0.859 |  | 1.11 | 1.35 | 0.956 | 0.942 | 1.09 | 0.939 | 1.03 | 1.13 | 0.876 |  | 1.09 | 1.25 | 0.97 | 0.928 | 0.899 | 0.819 | 0.818 |
| PC-14 | 0.841 | 0.86 | 0.896 | 0.972 | 1.03 | 0.983 | 0.897 | 0.792 | 0.834 | 0.767 | 0.91 | 0.904 | 0.881 | 0.932 | 0.954 | 0.339 | 0.427 | 0.32 | 0.302 | 0.387 |
| NCI-H1437 | 0.669 | 0.568 | 0.516 | 0.441 | 0.601 | 0.629 | 0.456 | 0.451 | 0.639 | 0.548 | 0.967 | 0.928 | 0.875 | 0.949 | 1.09 | 1.09 | 1.12 | 1.17 | 1.06 | 1.08 |
